Earlier results, collected in patent publication EP0985412B1, “Cyclosporin compositions” (Panacea Biotec Limited, priority 1998, dated 2000).

System: normal epithelial tissue and Peyer's patch tissue of guinea pigs

absorption raised by a factor: 5-6
Substance: Choleic acid
